The nature of this data set: Percent bioavailability after intraduodenal injection in anesthetized rats, (AUC)0-90 min relative to i.v. The note with it: male, Sprague-Dawley, rat, in vivo, other: intraduodenal injection, 2.5 mg per animal, pH 5, Control (no adjuvant), intraduodenal injection 0.25 ml, drug 10 mg/ml, pH 5, ionic strength 0.3, AUC 0-90 min vs i.v., read-out: Percent Bioavailability (% BA). As for the experimental part: The following tests were run showing Percent Bioavailability (% BA)
The above tests were done according to the following protocol:
Animals: Male Sprague-Dawley rats (200-250 g)
Anesthesia: Ethyl carbamate by i.m. injection
Blood 0.6 ml from external jugular vein at
(AUC)o^90 calculated from summation
For the oral test an intraduodenal injection 1.0 cm distal to the pylorus was done . The volume of the injection was 0.25 ml at 0.3 ionic strength (adjusted with sodium chloride) and a pH of 5.
The drug was administered at 10 mg/ml unless otherwise noted and the adjuvant at 20 mg/ml unless otherwise noted.
The (AUC)i.v. was determined for each drug, based on the mean value from 3-6 animals.

Molecules are shown by their SMILES.

One may read the bioavailability as dose-corrected exposure relative to a reference, in per cent.

Consider `CC(C)[C@@H]1NC(=O)[C@H](CCCCN)NC(=O)[C@@H](Cc2c[nH]c3ccccc23)NC(=O)[C@H](Cc2ccc(O)cc2)NC(=O)[C@H](C)N(C)C(=O)[C@H](Cc2ccccc2)NC1=O` [Cyclo-(N-Me-Ala-Tyr-D-Trp-Lys-Val-Phe)], for which the bioavailability is 1%.

Source of the values: patent US4462991A, “Method of increasing oral absorption of polar bioactive agents” (INTERx Research Corp., priority 1982, dated 1984).
